Source: the NIST ThermoML archive (doi:10.1021/je200790q)

What was measured:
[1] = 101.33 kPa, Liquid; for mass density: Vibrating tube method
[2] = molar heat capacity at constant pressure; settings: 298.15 K; 101.33 kPa; Liquid; Drop calorimetry
[3] = refractive index (Na D-line) (dimensionless); settings: 101.33 kPa, Liquid, Standard Abbe refractometry

CCn1cc[n+](C)c1.N#CN=C=[N-] [1-ethyl-3-methylimidazolium dicyanamide]
Settings | mass density, [1] [kg/m3] | refractive index, [3] | viscosity, [1] [mPa·s]
278.15 K | 1117.9 | – | 32.51
283.15 K | 1114.3 | – | 26.67
288.15 K | 1110.9 | – | 22.23
288.37 K | – | 1.51745 | –
293.15 K | 1107.4 | – | 18.79
293.28 K | – | 1.51585 | –
298.15 K | 1104 | – | 16.09
298.19 K | – | 1.51428 | –
303.1 K | – | 1.51269 | –
303.15 K | 1100.6 | – | 13.92
308.01 K | – | 1.51112 | –
308.15 K | 1097.3 | – | 12.16
312.91 K | – | 1.50956 | –
313.15 K | 1094 | – | 10.72
318.15 K | 1090.7 | – | 9.519
323.15 K | 1087.4 | – | 8.518
328.15 K | 1084.2 | – | 7.673
333.15 K | 1081 | – | 6.951
338.15 K | 1077.8 | – | 6.327
343.15 K | 1074.7 | – | 5.788
348.15 K | 1071.6 | – | 5.319
353.15 K | 1068.5 | – | 4.909
358.15 K | 1065.4 | – | 4.548
363.15 K | 1062.3 | – | 4.229

Settings | molar heat capacity at constant pressure [J/K/mol]
[2] | 314.63

CCn1cc[n+](C)c1.CO[PH](=O)[O-] [1-ethyl-3-methylimidazolium methyl phosphonate]
Settings | mass density, [1] [kg/m3] | refractive index, [3] | viscosity, [1] [mPa·s]
278.15 K | 1222.2 | – | 916.06
283.15 K | 1218.6 | – | 598.79
288.15 K | 1215.1 | – | 406.82
288.37 K | – | 1.49534 | –
293.15 K | 1211.7 | – | 285.8
293.28 K | – | 1.4939 | –
298.15 K | 1208.3 | – | 206.76
298.19 K | – | 1.49249 | –
303.1 K | – | 1.49115 | –
303.15 K | 1205 | – | 153.63
308.01 K | – | 1.48982 | –
308.15 K | 1201.8 | – | 116.89
312.91 K | – | 1.48854 | –
313.15 K | 1198.6 | – | 90.83
317.82 K | – | 1.48714 | –
318.15 K | 1195.5 | – | 71.92
323.15 K | 1192.3 | – | 57.94
328.15 K | 1189.2 | – | 47.38
333.15 K | 1186.1 | – | 39.29
338.15 K | 1183 | – | 32.99
343.15 K | 1179.9 | – | 28.02
348.15 K | 1176.9 | – | 24.05
353.15 K | 1173.9 | – | 20.83
358.15 K | 1170.9 | – | 18.2
363.15 K | 1167.9 | – | 16.03

Settings | molar heat capacity at constant pressure [J/K/mol]
[2] | 354.63

CCn1cc[n+](C)c1.Cc1ccc(S(=O)(=O)[O-])cc1 [1-ethyl-3-methylimidazolium 4-methylbenzenesulfonate]
Settings | mass density, [1] [kg/m3] | refractive index, [3] | viscosity, [1] [mPa·s]
303.15 K | 1223.4 | – | 1417.4
308.15 K | 1220 | – | 842.45
313.15 K | 1216.6 | – | 531.73
318.15 K | 1213.2 | – | 351.97
322.73 K | – | 1.53844 | –
323.15 K | 1210 | – | 242.85
325.68 K | – | 1.53757 | –
327.64 K | – | 1.53703 | –
328.15 K | 1206.8 | – | 173.69
329.61 K | – | 1.53649 | –
332.55 K | – | 1.5357 | –
333.15 K | 1203.7 | – | 128.18
334.52 K | – | 1.53509 | –
336.48 K | – | 1.53461 | –
338.15 K | 1200.6 | – | 97.21
338.44 K | – | 1.53409 | –
340.41 K | – | 1.53356 | –
342.37 K | – | 1.53304 | –
343.15 K | 1197.6 | – | 75.51
348.15 K | 1194.5 | – | 59.9
353.15 K | 1191.5 | – | 48.42
358.15 K | 1188.5 | – | 39.81
363.15 K | 1185.5 | – | 33.22

CCn1cc[n+](C)c1.COP(=O)([O-])OC [1-ethyl-3-methylimidazolium dimethylphosphate]
Settings | mass density, [1] [kg/m3] | refractive index, [3] | viscosity, [1] [mPa·s]
298.19 K | – | 1.48175 | –
303.1 K | – | 1.4805 | –
303.15 K | 1213.9 | – | 192.68
308.01 K | – | 1.47909 | –
308.15 K | 1210.5 | – | 144.32
312.91 K | – | 1.47771 | –
313.15 K | 1207.1 | – | 110.51
317.82 K | – | 1.47636 | –
318.15 K | 1203.8 | – | 86.32
322.73 K | – | 1.47511 | –
323.15 K | 1200.5 | – | 68.64
327.64 K | – | 1.47384 | –
328.15 K | 1197.2 | – | 55.46
333.15 K | 1193.9 | – | 45.47
338.15 K | 1190.6 | – | 37.78
343.15 K | 1187.4 | – | 31.76
348.15 K | 1184.2 | – | 26.99
353.15 K | 1181 | – | 23.17
358.15 K | 1177.8 | – | 20.07
363.15 K | 1174.7 | – | 17.53

Settings | molar heat capacity at constant pressure [J/K/mol]
[2] | 411.78
